Assays:
Assay type in all cases: cell-based, human
Details in all cases: 96 h
[1] = test system: A-549 lung adenocarcinoma cell line; assay: DIMSCAN cytotoxicity, fenretinide + L-threo-sphinganines 3:1 (Example B13)
Protocol: (§1) Cytotoxicity Assay—Once again, cytotoxicity is determined using the DIMSCAN assay system (R. Proffitt et al., Cytometry 24, 204-213 (1996); T. Frgala et al., Mol Cancer Ther. 6:886-97, 2007). The system employs digital imaging microscopy to quantify viable cells, which selectively accumulate fluorescein diacetate to become brightly fluorescent. The system is capable of measuring cytotoxicity over a 4-5 log dynamic range by quenching the residual fluorescence of dead and dying cells with eosin Y and quantifying the total fluorescence of viable cells using digital thresholding. Measured fluorescence is directly proportionate to the number of viable cells. A comparison of the total fluorescence of a drug-treated cell population to the fluorescence of a similar number of untreated cells yields a survival fraction. In brief, 2000 to 10,000 cells/well (depending on size and growth rates) are replicate plated into 60 wells of a 96-well tissue culture plate in 0.1 mL of whole medium and allowed to attach overnight. Drug(s) are then added in 0.05 mL of whole medium to the final concentrations indicated. Drugs (fenretinide, and various chain length L-threo-sphinganines) were tested both as single agents and in a 3:1 ratio of fenretinide:sphinganine. C18-L-threo-sphinganine, or “safingol,” was also tested and results shown for reference. There are 12 wells treated per drug concentration. Twelve wells receive drug vehicle-only to the appropriate final concentration and serve as controls for the plate. Cells are incubated for 96 hours at 37° C. in ambient air with 5% CO2. Fluorescein diacetate is then added to each well in 0.05 mL media to a final concentration of 8 microgram/mL. Cells are incubated for a further 15 minutes at 37° C. and 0.03 mL of 0.5% eosin Y is added to each well. Total fluorescence of viable cells is then measured by digital imaging microscopy. Results were graphed as the ratio of the fluoresecence of drug-treated wells to non-drug treated control wells (i.e., Survival Fraction). All tests were performed at least twice. Representative results are shown.
(§2) The Combination Index (CI) is a term to describe mathematical modeling of the pharmacologic effects on cytotoxicity (cell death) of two drugs in combination based. Cytotoxic “synergy” is defined as a cell death affect which is greater than would be expected from a simple product of the single agent cytotoxicities alone (i.e. an “additive” effect). By Chou-Talalay analysis, a CI<0.9 on a Fraction Affected (“Fa”, i.e. fraction of cells killed) indicates synergy, with smaller numbers indicating greater synergy; a CI of 0.9-1.1 signifies an additive or near-additive effect; and a CI>1.1 means the drug combination is antagonistic.
Fenretinide and L-threo-sphinganines tested in human lung adenocarcinoma (lung cancer) cell line, A-549.

[2] = test system: A-172 Glioblastoma multiforme cell line; assay: DIMSCAN cytotoxicity, fenretinide + L-threo-sphinganines 3:1 (Example B4); parameters: key to CI (Combination Index): Chou-Talalay CI: <0.9 synergy, 0.9-1.1 additive, >1.1 antagonism
Protocol: as §1, §2
Fenretinide and L-threo-sphinganines tested in human Glioblastoma multiforme (brain cancer) cell line, A-172.

[3] = test system: OVCAR-8 ovarian adenocarcinoma cell line; assay: DIMSCAN cytotoxicity, fenretinide + L-threo-sphinganines 3:1 (Example B15); parameters: key to CI (Combination Index): Chou-Talalay CI: <0.9 synergy, 0.9-1.1 additive, >1.1 antagonism
Protocol: as §1, §2
Fenretinide and L-threo-sphinganines tested in human ovarian adenocarcinoma (ovarian cancer) cell line, OVCAR-8.

[4] = test system: RPMI-8226 Multiple Myeloma cell line; assay: DIMSCAN cytotoxicity, fenretinide + L-threo-sphinganines 3:1 (Example B2)
Protocol: as §1, §2
Fenretinide and L-threo-sphinganines tested in human Multiple Myeloma (a cancer of the blood and bone marrow) cell line, RPMI-8226.

[5] = test system: SJ-G2 Glioblastoma cell line; assay: DIMSCAN cytotoxicity, fenretinide + L-threo-sphinganines 3:1 (Example B8)
Protocol: as §1, §2
Fenretinide and L-threo-sphinganines tested in human Glioblastoma (brain cancer) cell line, SJ-G2.

[6] = 4-HPR 1.5 μM + L-threo-sphinganine 0.5 μM
[7] = 4-HPR 3 μM + L-threo-sphinganine 1 μM
[8] = 4-HPR 6 μM + L-threo-sphinganine 2 μM
[9] = 4-HPR 9 μM + L-threo-sphinganine 3 μM

Structure (SMILES) | CI (Combination Index) [1, 6] | Fa (fraction affected) [1, 6] | CI (Combination Index) [1, 7] | Fa (fraction affected) [1, 7] | CI (Combination Index) [1, 8] | Fa (fraction affected) [1, 8] | CI (Combination Index) [1, 9] | Fa (fraction affected) [1, 9] | CI (Combination Index) [2, 6] | Fa (fraction affected) [2, 6] | CI (Combination Index) [2, 7] | Fa (fraction affected) [2, 7] | CI (Combination Index) [2, 8] | Fa (fraction affected) [2, 8] | CI (Combination Index) [2, 9] | Fa (fraction affected) [2, 9] | CI (Combination Index) [3, 6] | Fa (fraction affected) [3, 6] | CI (Combination Index) [3, 7] | Fa (fraction affected) [3, 7] | further results
CCCCCCCCCCCC[C@H](O)[C@@H](N)CO [C15] | 1.9 | 0.000 | 2.1 | 0.000 | 0.9 | 0.044 | 0.8 | 0.342 | 23.7 | 0.001 | 1.4 | 0.378 | 0.4 | 0.991 | 0.4 | 0.998 | 0.1 | 0.668 | 0.1 | 0.854 | CI (Combination Index) [3, 8]: 0.1; Fa (fraction affected) [3, 8]: 0.977; CI (Combination Index) [3, 9]: 0.2; Fa (fraction affected) [3, 9]: 0.977; CI (Combination Index) [4, 6]: 1.0; Fa (fraction affected) [4, 6]: 0.518; CI (Combination Index) [4, 7]: 1.1; Fa (fraction affected) [4, 7]: 0.75; CI (Combination Index) [4, 8]: 0.5; Fa (fraction affected) [4, 8]: 0.978; CI (Combination Index) [4, 9]: 0.2; Fa (fraction affected) [4, 9]: 0.998; CI (Combination Index) [5, 6]: 1.1; Fa (fraction affected) [5, 6]: 0.135; CI (Combination Index) [5, 7]: 1.3; Fa (fraction affected) [5, 7]: 0.282; CI (Combination Index) [5, 8]: 1.3; Fa (fraction affected) [5, 8]: 0.620; CI (Combination Index) [5, 9]: 1.0; Fa (fraction affected) [5, 9]: 0.846
CCCCCCCCCCC[C@H](O)[C@@H](N)CO [C14] | 1 | 0.01 | 1.0 | 0.02 | 1.1 | 0.072 | 0.5 | 0.461 | 23.7 | 0.001 | 3.8 | 0.065 | 1.0 | 0.717 | 0.5 | 0.958 | 0.1 | 0.696 | 0.1 | 0.860 | CI (Combination Index) [3, 8]: 0.1; Fa (fraction affected) [3, 8]: 0.978; CI (Combination Index) [3, 9]: 0.1; Fa (fraction affected) [3, 9]: 0.988; CI (Combination Index) [4, 6]: 0.8; Fa (fraction affected) [4, 6]: 0.606; CI (Combination Index) [4, 7]: 1.1; Fa (fraction affected) [4, 7]: 0.747; CI (Combination Index) [4, 8]: 1.0; Fa (fraction affected) [4, 8]: 0.93; CI (Combination Index) [4, 9]: 0.4; Fa (fraction affected) [4, 9]: 0.994; CI (Combination Index) [5, 6]: 1.3; Fa (fraction affected) [5, 6]: 0.103; CI (Combination Index) [5, 7]: 1.3; Fa (fraction affected) [5, 7]: 0.307; CI (Combination Index) [5, 8]: 1.4; Fa (fraction affected) [5, 8]: 0.575; CI (Combination Index) [5, 9]: 1.0; Fa (fraction affected) [5, 9]: 0.845

— patent publication US20110152267A1, “Compositions and Methods for Treating Hyperproliferative Disorders” (Texas Tech University System, priority 2009, published 2011)
